# Test results published in PubChem BioAssay (NCI).
#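 Test compounds were applied to cells in 96-well plates for 48 hours at 5 doses. GI50: concentration for 50% inhibition of growth. Definition used: TGI = concentration required for complete inhibition of growth.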
# How the values were obtained:
# Assay in all cases: NCI tumour cell line growth inhibition, 48 h
# A498 renal = test system: A498 renal
# ACHN renal = test system: ACHN renal
# COLO 205 colon = test system: COLO 205 colon
# KM12 colon = test system: KM12 colon
# MDA-MB-231 breast = test system: MDA-MB-231 breast
# NCI-H226 lung = test system: NCI-H226 lung
# PC-3 prostate = test system: PC-3 prostate
# RPMI-8226 leukemia = test system: RPMI-8226 leukemia
# SF-295 CNS = test system: SF-295 CNS
# UACC-257 melanoma = test system: UACC-257 melanoma
compound,measurement,setting,value
CC[N+](CC)(CCNCC(N)=O)CC(N)=O,TGI,A498 renal,> 10 µM
same,TGI,ACHN renal,> 10 µM
same,TGI,COLO 205 colon,> 10 µM
same,TGI,KM12 colon,> 10 µM
same,TGI,MDA-MB-231 breast,> 10 µM
same,TGI,NCI-H226 lung,> 10 µM
same,TGI,PC-3 prostate,> 10 µM
same,TGI,RPMI-8226 leukemia,> 10 µM
same,TGI,SF-295 CNS,> 10 µM
same,TGI,UACC-257 melanoma,> 10 µM
c1ccc(N=C2SC(=NC3CCCCC3)N(C3CCCCC3)C2=Nc2ccccc2)cc1,TGI,A498 renal,> 100 µM
same,TGI,COLO 205 colon,> 100 µM
same,TGI,KM12 colon,> 100 µM
same,TGI,MDA-MB-231 breast,> 100 µM
same,TGI,NCI-H226 lung,> 100 µM
same,TGI,PC-3 prostate,> 100 µM
same,TGI,RPMI-8226 leukemia,> 100 µM
same,TGI,SF-295 CNS,> 100 µM
Cc1ccc(S(=O)(=O)Oc2cc(-c3ccccc3)nc3ccccc23)cc1,TGI,A498 renal,9.62 µM
same,TGI,COLO 205 colon,1.18 µM
same,TGI,KM12 colon,> 43.5 µM
same,TGI,NCI-H226 lung,26.5 µM
same,TGI,RPMI-8226 leukemia,7.71 µM
same,TGI,SF-295 CNS,13.1 µM
same,TGI,UACC-257 melanoma,52.2 µM
C=CC(Br)(CBr)CCC(Cl)C(C)C (stereo unspecified),TGI,A498 renal,27 µM
same,TGI,ACHN renal,8.49 µM
same,TGI,COLO 205 colon,10.2 µM
same,TGI,KM12 colon,2.95 µM
same,TGI,MDA-MB-231 breast,2.79 µM
same,TGI,NCI-H226 lung,27.7 µM
same,TGI,PC-3 prostate,14.1 µM
same,TGI,SF-295 CNS,3.9 µM
same,TGI,UACC-257 melanoma,5.97 µM
O=NN(CCCl)C(=O)NC1CCSc2ccccc21 (stereo unspecified),TGI,A498 renal,> 100 µM
same,TGI,COLO 205 colon,> 100 µM
same,TGI,KM12 colon,> 100 µM
same,TGI,NCI-H226 lung,> 100 µM
same,TGI,RPMI-8226 leukemia,> 100 µM
same,TGI,SF-295 CNS,> 100 µM
same,TGI,UACC-257 melanoma,> 100 µM
NC(Cc1cccc([N+](=O)[O-])c1)C(=O)O (stereo unspecified),TGI,A498 renal,> 100 µM
same,TGI,ACHN renal,> 100 µM
same,TGI,COLO 205 colon,> 100 µM
same,TGI,KM12 colon,> 100 µM
same,TGI,MDA-MB-231 breast,> 100 µM
same,TGI,NCI-H226 lung,> 100 µM
same,TGI,PC-3 prostate,> 100 µM
same,TGI,RPMI-8226 leukemia,> 100 µM
same,TGI,SF-295 CNS,> 100 µM
same,TGI,UACC-257 melanoma,> 100 µM
Cc1nc(N)sc1-c1ccnc(Nc2ccc(N3CCOCC3)cc2)n1,GI50,A498 renal,0.731 µM
same,TGI,A498 renal,2.07 µM
same,GI50,ACHN renal,0.8 µM
same,TGI,ACHN renal,> 100 µM
same,GI50,COLO 205 colon,0.488 µM
same,TGI,COLO 205 colon,> 100 µM
same,GI50,KM12 colon,1.59 µM
same,TGI,KM12 colon,> 100 µM
same,GI50,MDA-MB-231 breast,3.1 µM
same,TGI,MDA-MB-231 breast,> 100 µM
same,GI50,PC-3 prostate,1.81 µM
same,TGI,PC-3 prostate,> 100 µM
same,GI50,RPMI-8226 leukemia,1.66 µM
same,TGI,RPMI-8226 leukemia,> 38.3 µM
same,GI50,SF-295 CNS,1.2 µM
same,TGI,SF-295 CNS,74.4 µM
same,TGI,UACC-257 melanoma,> 100 µM
COc1ccc(C2CC(c3cccc(Nc4ccncc4)c3)=NN2c2cc(Cl)cc(Cl)c2)cc1 (stereo unspecified),GI50,A498 renal,3.06 µM
same,TGI,A498 renal,18 µM
same,GI50,ACHN renal,1.7 µM
same,TGI,ACHN renal,3.08 µM
same,GI50,KM12 colon,1.77 µM
same,TGI,KM12 colon,3.3 µM
same,GI50,NCI-H226 lung,10.7 µM
same,TGI,NCI-H226 lung,30.7 µM
same,GI50,PC-3 prostate,1.54 µM
same,TGI,PC-3 prostate,3.16 µM
same,GI50,SF-295 CNS,1.73 µM
same,TGI,SF-295 CNS,3.14 µM
same,GI50,UACC-257 melanoma,2.16 µM
same,TGI,UACC-257 melanoma,4.92 µM
NC(N)=NCCN=C(N)N,TGI,A498 renal,> 100 µM
same,TGI,ACHN renal,> 100 µM
same,TGI,COLO 205 colon,> 100 µM
same,TGI,KM12 colon,> 100 µM
same,TGI,MDA-MB-231 breast,> 100 µM
same,TGI,PC-3 prostate,> 100 µM
same,TGI,RPMI-8226 leukemia,> 100 µM
same,TGI,SF-295 CNS,> 100 µM
same,TGI,UACC-257 melanoma,> 100 µM
NNC(N)Nc1ccccc1 (stereo unspecified),TGI,A498 renal,> 100 µM
same,TGI,ACHN renal,> 100 µM
same,TGI,COLO 205 colon,> 100 µM
same,TGI,KM12 colon,> 100 µM
same,TGI,MDA-MB-231 breast,> 100 µM
same,TGI,NCI-H226 lung,> 100 µM
same,TGI,PC-3 prostate,> 100 µM
same,TGI,SF-295 CNS,> 100 µM
same,TGI,UACC-257 melanoma,> 100 µM
NCCCNc1nc2ccccc2c2c(=O)c3cc(OC(F)(F)F)ccc3sc12,GI50,ACHN renal,1.6 µM
same,TGI,ACHN renal,2.96 µM
same,GI50,MDA-MB-231 breast,1.26 µM
same,TGI,MDA-MB-231 breast,2.6 µM
same,GI50,PC-3 prostate,1.67 µM
same,TGI,PC-3 prostate,3.19 µM
CC(=O)Oc1cccc2c(/C=N/NC(N)=S)ncc(C)c12,TGI,A498 renal,29.2 µM
same,TGI,ACHN renal,2.7 µM
same,TGI,COLO 205 colon,> 41 µM
same,TGI,KM12 colon,15.5 µM
same,TGI,MDA-MB-231 breast,25.8 µM
same,TGI,NCI-H226 lung,12.8 µM
same,TGI,PC-3 prostate,33.6 µM
same,TGI,RPMI-8226 leukemia,24.5 µM
same,TGI,SF-295 CNS,14.4 µM
same,TGI,UACC-257 melanoma,> 41.2 µM
CC1CC=CC(O)C1 (stereo unspecified),TGI,A498 renal,> 100 µM
same,TGI,COLO 205 colon,> 100 µM
same,TGI,KM12 colon,> 100 µM
same,TGI,NCI-H226 lung,> 100 µM
same,TGI,RPMI-8226 leukemia,> 100 µM
same,TGI,SF-295 CNS,> 100 µM
same,TGI,UACC-257 melanoma,> 100 µM
O=C(OC(=O)n1ccc2ccccc21)n1ccc2ccccc21,TGI,A498 renal,> 100 µM
same,TGI,COLO 205 colon,> 100 µM
same,TGI,KM12 colon,> 100 µM
same,TGI,NCI-H226 lung,> 100 µM
same,TGI,RPMI-8226 leukemia,> 100 µM
same,TGI,SF-295 CNS,> 100 µM
same,TGI,UACC-257 melanoma,> 100 µM
CCCCCN=Cc1c(O)c(O)c(C(C)C)c2cc(C)c(-c3c(C)cc4c(C(C)C)c(O)c(O)c(C=NCCCCC)c4c3O)c(O)c12,TGI,A498 renal,> 100 µM
same,TGI,ACHN renal,31.3 µM
same,TGI,COLO 205 colon,9.15 µM
same,TGI,KM12 colon,19.8 µM
same,TGI,MDA-MB-231 breast,65.1 µM
same,TGI,NCI-H226 lung,88.4 µM
same,TGI,PC-3 prostate,41.1 µM
same,TGI,RPMI-8226 leukemia,> 100 µM
same,TGI,UACC-257 melanoma,46.2 µM
COc1cc(C[S+]2CCCC2)c(SC)cc1C[S+]1CCCC1,TGI,A498 renal,> 100 µM
same,TGI,ACHN renal,> 100 µM
same,TGI,COLO 205 colon,> 100 µM
same,TGI,KM12 colon,> 100 µM
same,TGI,NCI-H226 lung,> 100 µM
same,TGI,RPMI-8226 leukemia,> 100 µM
same,TGI,SF-295 CNS,> 100 µM
same,TGI,UACC-257 melanoma,> 100 µM
Cc1cc(=O)[nH]c(NN2C(Cl)C(=O)C2c2cccc(O)c2)n1 (stereo unspecified),TGI,ACHN renal,> 100 µM
same,TGI,COLO 205 colon,> 100 µM
same,TGI,KM12 colon,> 100 µM
same,TGI,RPMI-8226 leukemia,> 100 µM
same,TGI,UACC-257 melanoma,> 100 µM
CCC[CH2][Ge]([CH2]CCC)([CH2]CCC)[O]C(=O)CC(=O)c1ccccc1,GI50,ACHN renal,2.67 µM
same,TGI,ACHN renal,16.8 µM
same,GI50,COLO 205 colon,1.55 µM
same,TGI,COLO 205 colon,13.3 µM
same,GI50,KM12 colon,0.883 µM
same,TGI,KM12 colon,16 µM
same,GI50,NCI-H226 lung,3.23 µM
same,TGI,NCI-H226 lung,17.2 µM
same,GI50,RPMI-8226 leukemia,0.959 µM
same,TGI,RPMI-8226 leukemia,> 100 µM
NC(CCCCP(=O)(O)O)C(=O)O (stereo unspecified),TGI,ACHN renal,> 100 µM
same,TGI,COLO 205 colon,> 100 µM
same,TGI,KM12 colon,> 100 µM
same,TGI,MDA-MB-231 breast,> 100 µM
same,TGI,PC-3 prostate,> 100 µM
same,TGI,RPMI-8226 leukemia,> 100 µM
same,TGI,SF-295 CNS,> 100 µM
same,TGI,UACC-257 melanoma,> 100 µM
CCc1nc(N)nc(N)c1-c1ccc2nn(-c3ccccc3)[n+]([O-])c2c1,TGI,A498 renal,29.2 µM
same,TGI,ACHN renal,17.3 µM
same,TGI,COLO 205 colon,22.3 µM
same,TGI,KM12 colon,41 µM
same,TGI,MDA-MB-231 breast,25.5 µM
same,TGI,NCI-H226 lung,48.7 µM
same,TGI,PC-3 prostate,23.4 µM
same,TGI,RPMI-8226 leukemia,35.7 µM
same,TGI,SF-295 CNS,63.5 µM
same,TGI,UACC-257 melanoma,24.2 µM
CC(=O)OC1CCC2(C)C3CCC4(C)C(c5ccc(=O)oc5)CC5OC54C3CCC2(O)C1 (stereo unspecified),TGI,A498 renal,15.1 µM
same,TGI,COLO 205 colon,10.3 µM
same,TGI,KM12 colon,10.7 µM
same,TGI,NCI-H226 lung,25.1 µM
same,TGI,RPMI-8226 leukemia,14.1 µM
same,TGI,SF-295 CNS,5.63 µM
same,TGI,UACC-257 melanoma,19.5 µM
Nc1nc(N)c2[nH]c(CNc3ccc(C(=O)O)cc3)nc2n1,TGI,A498 renal,> 100 µM
same,TGI,ACHN renal,> 100 µM
same,TGI,COLO 205 colon,> 100 µM
same,TGI,KM12 colon,> 100 µM
same,TGI,MDA-MB-231 breast,> 100 µM
same,TGI,NCI-H226 lung,> 100 µM
same,TGI,PC-3 prostate,> 100 µM
same,TGI,RPMI-8226 leukemia,> 100 µM
same,TGI,SF-295 CNS,> 100 µM
same,TGI,UACC-257 melanoma,> 100 µM
O=[N+]([O-])c1ccc(C=C2C(Cl)=C(Cl)C(Cl)=C2Cl)cc1,GI50,A498 renal,5.13 µM
same,TGI,A498 renal,26.6 µM
same,GI50,COLO 205 colon,3.2 µM
same,TGI,COLO 205 colon,> 100 µM
same,GI50,MDA-MB-231 breast,3.39 µM
same,TGI,MDA-MB-231 breast,> 100 µM
same,GI50,NCI-H226 lung,4.31 µM
same,TGI,NCI-H226 lung,23 µM
same,GI50,PC-3 prostate,2.71 µM
same,TGI,PC-3 prostate,8.35 µM
same,GI50,RPMI-8226 leukemia,1.84 µM
same,TGI,RPMI-8226 leukemia,5.16 µM
same,GI50,SF-295 CNS,3.47 µM
same,TGI,SF-295 CNS,76.6 µM
